Assay results as given in ChEMBL document CHEMBL6096675 (J Med Chem, 2025).
Active and inactive are the calls of the source. No cut-off for these calls is given here.

Assays:
[1] = target: T1, von Hippel-Lindau disease tumor suppressor/SWI/SNF-related matrix-associated actin-dependent regulator of chromatin subfamily A member 4 (Homo sapiens, UniProt P51532+P40337); assay: PROTAC activity at SMARCA4/VHL1 in human HeLa cells assessed as protein degradation after 2 hrs by Nano-Glo HiBiT lytic detection assay; format: cell-based
T1 sequence (P51532 whole entry): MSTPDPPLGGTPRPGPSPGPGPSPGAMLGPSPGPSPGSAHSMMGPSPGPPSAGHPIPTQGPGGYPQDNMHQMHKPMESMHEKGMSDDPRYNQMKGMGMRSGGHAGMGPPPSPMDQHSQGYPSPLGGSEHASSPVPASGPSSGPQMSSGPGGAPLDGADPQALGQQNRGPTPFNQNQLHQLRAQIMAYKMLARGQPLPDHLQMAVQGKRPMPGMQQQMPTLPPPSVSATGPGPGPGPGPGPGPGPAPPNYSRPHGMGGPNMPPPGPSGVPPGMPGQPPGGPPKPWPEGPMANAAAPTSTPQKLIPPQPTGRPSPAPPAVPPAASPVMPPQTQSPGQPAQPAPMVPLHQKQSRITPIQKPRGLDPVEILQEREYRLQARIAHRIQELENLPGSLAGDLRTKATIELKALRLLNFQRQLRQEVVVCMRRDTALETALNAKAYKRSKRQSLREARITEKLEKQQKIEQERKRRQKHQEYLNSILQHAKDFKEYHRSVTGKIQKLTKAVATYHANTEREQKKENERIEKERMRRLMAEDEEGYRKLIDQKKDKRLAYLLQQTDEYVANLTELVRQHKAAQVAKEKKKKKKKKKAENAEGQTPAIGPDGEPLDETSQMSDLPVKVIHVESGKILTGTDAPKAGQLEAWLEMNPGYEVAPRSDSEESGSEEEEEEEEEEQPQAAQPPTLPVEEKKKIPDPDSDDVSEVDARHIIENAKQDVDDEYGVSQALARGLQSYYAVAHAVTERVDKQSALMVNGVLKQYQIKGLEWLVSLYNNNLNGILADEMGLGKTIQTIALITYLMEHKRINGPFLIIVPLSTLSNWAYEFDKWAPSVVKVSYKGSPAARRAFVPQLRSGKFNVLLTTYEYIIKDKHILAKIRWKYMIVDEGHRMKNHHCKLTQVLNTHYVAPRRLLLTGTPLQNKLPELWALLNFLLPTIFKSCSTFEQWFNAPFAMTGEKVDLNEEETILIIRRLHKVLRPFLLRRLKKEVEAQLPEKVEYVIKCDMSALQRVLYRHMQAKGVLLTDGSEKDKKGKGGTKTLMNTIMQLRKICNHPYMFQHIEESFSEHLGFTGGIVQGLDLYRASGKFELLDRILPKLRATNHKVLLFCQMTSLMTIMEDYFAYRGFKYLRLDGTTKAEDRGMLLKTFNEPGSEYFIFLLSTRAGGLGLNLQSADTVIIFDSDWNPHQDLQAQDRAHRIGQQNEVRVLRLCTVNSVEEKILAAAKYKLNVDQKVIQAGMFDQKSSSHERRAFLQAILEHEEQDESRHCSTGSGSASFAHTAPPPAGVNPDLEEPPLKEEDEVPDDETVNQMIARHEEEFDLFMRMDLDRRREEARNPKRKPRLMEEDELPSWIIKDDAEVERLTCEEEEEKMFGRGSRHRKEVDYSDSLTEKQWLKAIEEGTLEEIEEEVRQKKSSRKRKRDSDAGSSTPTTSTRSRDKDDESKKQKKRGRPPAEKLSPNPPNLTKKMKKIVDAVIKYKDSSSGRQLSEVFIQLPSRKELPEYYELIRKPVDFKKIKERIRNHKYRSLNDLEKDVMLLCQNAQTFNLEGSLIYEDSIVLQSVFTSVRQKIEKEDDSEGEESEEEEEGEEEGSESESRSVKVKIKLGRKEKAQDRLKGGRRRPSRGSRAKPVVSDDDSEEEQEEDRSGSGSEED
T1 sequence (P40337 whole entry): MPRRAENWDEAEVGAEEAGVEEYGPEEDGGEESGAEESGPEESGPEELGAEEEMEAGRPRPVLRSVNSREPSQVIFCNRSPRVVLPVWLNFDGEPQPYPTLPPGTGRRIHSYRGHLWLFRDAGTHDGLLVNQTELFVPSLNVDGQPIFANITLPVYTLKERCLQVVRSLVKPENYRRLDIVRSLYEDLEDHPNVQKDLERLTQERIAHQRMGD

[2] = target: von Hippel-Lindau disease tumor suppressor (Homo sapiens, UniProt P40337); assay: Inhibition of VHL (unknown origin)
von Hippel-Lindau disease tumor suppressor, sequence (P40337 whole entry): as above

[3] = tested on: SK-MEL-5; assay: Antiproliferative activity against human SMARCA4-deficient SK-MEL-5 cells assessed as inhibition of cell growth measured after 7 days by WST-8 assay; format: functional; details: SK-MEL-5, 168 h, time 7 day
[4] = Antiproliferative activity against human SMARCA4-deficient NCI-H838 cells assessed as inhibition of cell growth measured after 7 days by WST-8 assay; format: functional; details: NCI-H838, 168 h, time 7 day
[5] = Antiproliferative activity against human SMARCA4-deficient NCI-H1568 cells assessed as inhibition of cell growth measured after 7 days by WST-8 assay; format: functional; details: NCI-H1568, 168 h, time 7 day
[6] = Antiproliferative activity against human SMARCA4-deficient NCI-H1944 cells assessed as inhibition of cell growth measured after 7 days by WST-8 assay; format: functional; details: NCI-H1944, 168 h, time 7 day
[7] = Antiproliferative activity against human SMARCA4-deficient NCI-H1693 cells assessed as inhibition of cell growth measured after 7 days by WST-8 assay; format: functional; details: NCI-H1693, 168 h, time 7 day
[8] = tested on: NCI-H1792; assay: Antiproliferative activity against human SMARCA4-wild type NCI-H1792 cells assessed as inhibition of cell growth measured after 7 days by WST-8 assay; format: functional; details: NCI-H1792, 168 h, time 7 day
[9] = tested on: SK-MEL-28; assay: Antiproliferative activity against human SMARCA4-wild type SK-MEL-28 cells assessed as inhibition of cell growth measured after 7 days by WST-8 assay; format: functional; details: SK-MEL-28, 168 h, time 7 day
[10] = Antiproliferative activity against human […] NCI-H1975 cells assessed as inhibition of cell growth measured after 7 days by WST-8 assay; format: functional; details: NCI-H1975, 168 h, time 7 day
[11] = Antiproliferative activity against human SMARCA4-deficient NCI-H838 cells assessed as maximal inhibition of cell growth measured after 7 days by WST-8 assay relative to control; format: functional; details: time 7 day
[12] = Antiproliferative activity against human SMARCA4-deficient NCI-H1568 cells assessed as maximal inhibition of cell growth measured after 7 days by WST-8 assay relative to control; format: functional; details: time 7 day
[13] = Antiproliferative activity against human SMARCA4-deficient NCI-H1944 cells assessed as maximal inhibition of cell growth measured after 7 days by WST-8 assay relative to control; format: functional; details: time 7 day
[14] = Antiproliferative activity against human SMARCA4-deficient NCI-H1693 cells assessed as maximal inhibition of cell growth measured after 7 days by WST-8 assay relative to control; format: functional; details: time 7 day
[15] = tested on: NCI-H1792; assay: Antiproliferative activity against human SMARCA4-wild type NCI-H1792 cells assessed as maximal inhibition of cell growth measured after 7 days by WST-8 assay relative to control; format: functional; details: time 7 day
[16] = tested on: SK-MEL-28; assay: Antiproliferative activity against human SMARCA4-wild type SK-MEL-28 cells assessed as maximal inhibition of cell growth measured after 7 days by WST-8 assay relative to control; format: functional; details: time 7 day
[17] = Antiproliferative activity against human […] NCI-H1975 cells assessed as maximal inhibition of cell growth measured after 7 days by WST-8 assay relative to control; format: functional; details: time 7 day
[18] = tested on: NCI-H838; assay: In vivo anti-tumor activity against SMARCA4-deficient human NCI-H838 cells xenografted in SCID mouse assessed as assessed as inhibition of tumor growth at 10 to 30 mg/kg, iv weekly once; format: functional, organism-based; details: dose 10-30 mg/kg
[19] = target: von Hippel-Lindau disease tumor suppressor/SWI/SNF-related matrix-associated actin-dependent regulator of chromatin subfamily A member 2 (Homo sapiens, UniProt P51531+P40337); assay: PROTAC activity at SMARCA2/VHL1 in human HeLa cells assessed as protein degradation by Nano-Glo HiBiT lytic detection assay; format: cell-based
von Hippel-Lindau disease tumor suppressor/SWI/SNF-related matrix-associated actin-dependent regulator of chromatin subfamily A member 2, sequence (P51531 whole entry): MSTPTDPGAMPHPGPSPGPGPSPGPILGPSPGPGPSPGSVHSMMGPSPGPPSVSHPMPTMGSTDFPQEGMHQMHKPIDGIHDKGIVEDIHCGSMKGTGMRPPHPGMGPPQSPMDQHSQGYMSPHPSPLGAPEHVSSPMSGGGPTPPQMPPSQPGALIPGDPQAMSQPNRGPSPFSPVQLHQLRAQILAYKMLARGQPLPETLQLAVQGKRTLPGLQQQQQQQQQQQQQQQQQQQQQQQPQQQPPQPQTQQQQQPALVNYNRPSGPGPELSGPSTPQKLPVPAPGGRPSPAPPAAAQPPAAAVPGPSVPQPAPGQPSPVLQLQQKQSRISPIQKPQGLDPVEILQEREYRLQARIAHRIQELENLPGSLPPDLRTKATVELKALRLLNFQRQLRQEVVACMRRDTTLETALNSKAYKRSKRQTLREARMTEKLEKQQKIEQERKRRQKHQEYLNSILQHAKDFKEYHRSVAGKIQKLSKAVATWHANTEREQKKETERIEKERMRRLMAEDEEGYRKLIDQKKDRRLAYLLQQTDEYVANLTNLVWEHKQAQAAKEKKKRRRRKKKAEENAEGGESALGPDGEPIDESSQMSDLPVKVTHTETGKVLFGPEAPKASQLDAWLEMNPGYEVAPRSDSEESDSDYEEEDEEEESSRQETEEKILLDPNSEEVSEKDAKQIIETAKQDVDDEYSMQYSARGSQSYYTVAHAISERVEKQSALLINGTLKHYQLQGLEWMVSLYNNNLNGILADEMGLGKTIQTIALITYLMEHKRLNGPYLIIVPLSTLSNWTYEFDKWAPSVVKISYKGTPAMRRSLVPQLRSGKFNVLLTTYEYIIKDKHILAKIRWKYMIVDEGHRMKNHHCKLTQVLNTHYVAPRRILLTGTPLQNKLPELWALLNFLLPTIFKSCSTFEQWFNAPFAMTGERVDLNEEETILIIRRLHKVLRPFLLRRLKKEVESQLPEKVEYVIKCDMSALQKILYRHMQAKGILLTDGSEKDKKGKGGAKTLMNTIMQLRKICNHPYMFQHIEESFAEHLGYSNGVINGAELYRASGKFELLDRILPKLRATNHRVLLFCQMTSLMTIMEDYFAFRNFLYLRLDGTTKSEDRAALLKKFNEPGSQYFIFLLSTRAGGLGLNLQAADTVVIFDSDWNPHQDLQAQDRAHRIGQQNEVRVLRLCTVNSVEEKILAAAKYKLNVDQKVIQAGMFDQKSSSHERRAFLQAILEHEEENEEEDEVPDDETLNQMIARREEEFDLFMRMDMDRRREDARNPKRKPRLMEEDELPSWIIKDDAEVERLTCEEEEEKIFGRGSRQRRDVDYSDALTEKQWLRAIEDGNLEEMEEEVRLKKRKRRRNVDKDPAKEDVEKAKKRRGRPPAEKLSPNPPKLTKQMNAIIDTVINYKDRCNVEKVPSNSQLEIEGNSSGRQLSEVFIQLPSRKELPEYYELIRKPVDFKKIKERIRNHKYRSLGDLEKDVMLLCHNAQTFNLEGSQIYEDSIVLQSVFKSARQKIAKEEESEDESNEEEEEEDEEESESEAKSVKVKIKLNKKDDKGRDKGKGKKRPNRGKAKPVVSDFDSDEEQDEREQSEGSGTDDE
von Hippel-Lindau disease tumor suppressor/SWI/SNF-related matrix-associated actin-dependent regulator of chromatin subfamily A member 2, sequence (P40337 whole entry): as the sequence (P40337 whole entry) above

[20] = target: T1, von Hippel-Lindau disease tumor suppressor/SWI/SNF-related matrix-associated actin-dependent regulator of chromatin subfamily A member 4; assay: PROTAC activity at SMARCA4/VHL1 in human HeLa cells assessed as protein degradation by Nano-Glo HiBiT lytic detection assay; format: cell-based
[21] = Plasma concentration in SCID mouse xenografted with human NCI-H838 cells at 10 mg/kg, iv measured after 48 hrs by LC-MS/MS analysis; format: ADME, organism-based
[22] = Plasma concentration in SCID mouse xenografted with human NCI-H838 cells at 10 mg/kg, iv measured after 168 hrs by LC-MS/MS analysis; format: ADME, organism-based; details: SCID, plasma
[23] = Drug uptake in tumor of human NCI-H838 cells xenografted SCID mouse model at 10 mg/kg, iv measured after 48 hrs by LC-MS/MS analysis; format: ADME, organism-based, Neoplasm; details: read-out: Drug uptake
[24] = Drug uptake in tumor of human NCI-H838 cells xenografted SCID mouse model at 10 mg/kg, iv measured after 168 hrs by LC-MS/MS analysis; format: ADME, organism-based, Neoplasm; details: read-out: Drug uptake

Cc1ncsc1-c1ccc([C@H](CN2CCOCC2)NC(=O)[C@@H]2C[C@H](O)CN2C(=O)[C@@H](n2cc([C@H]3CC[C@H](CN4CCC(c5ccc6c(c5)C5(CCCCC5)c5nc(=O)c7c(Cl)cccc7n5-6)CC4)CC3)nn2)C(C)(C)C)cc1
DC50 [1]: Not_active

Cc1cn([C@H](C(=O)N2C[C@H](O)C[C@H]2C(=O)N[C@@H](C)c2ccc(-c3scnc3C)cc2)C(C)(C)C)nn1
IC50 [2]: 16.1 nM

Cc1ncsc1-c1ccc([C@H](C)NC(=O)[C@@H]2C[C@@H](O)CN2C(=O)[C@@H](n2cc(C3CC3)nn2)C(C)(C)C)cc1
IC50 [2]: 18.9 nM

Cc1ncsc1-c1ccc([C@H](C)NC(=O)[C@@H]2C[C@@H](O)CN2C(=O)[C@@H](NC(=O)[C@H]2CC[C@H](CN3CC4(CCC(n5cc(-c6cc(-c7ccccc7O)nnc6N)cn5)CC4)C3)CC2)C(C)(C)C)cc1
GI50 [3]: 16 nM
GI50 [4]: 152 nM
GI50 [5]: 12 nM
GI50 [6]: 123 nM
GI50 [7]: 43 nM
GI50 [8]: > 10000 nM
GI50 [9]: > 10000 nM
GI50 [10]: > 10000 nM
Imax [11]: 77%
Imax [12]: 87%
Imax [13]: 70%
Imax [14]: 81%
Imax [15]: 25%
Imax [16]: 15%
Imax [17]: 40%
Activity [18]: Active

Cc1ncsc1-c1ccc([C@H](CN2CCOCC2)NC(=O)[C@@H]2C[C@@H](O)CN2C(=O)[C@H](C2CCOCC2)n2cc([C@H]3CC[C@H](CN4CCC(c5ccc6c(c5)-n5c(nc(=O)c7c(Cl)cccc75)C65CCCCC5)CC4)CC3)nn2)cc1
DC50 [19]: 0.1 nM
DC50 [20]: > 1000 nM
concentration at 48 h [21]: 30 ng/mL
concentration at 168 h [22]: 2.6 ng/mL
concentration at 48 h [23]: 491 ng/mL
concentration at 168 h [24]: 65 ng/mL
